Values quoted from earlier work, collected in PMC7533793 (Cancer, 2009).
Like-named read-outs stand apart in the source and are kept apart here.

System: in-transit extremity melanoma
Details: for CR rate, isolated limb infusion: Sydney Melanoma Unit study
[1] = previously published experience of the authors, without ADH-1

## N[C@@H](Cc1ccc(N(CCCl)CCCl)cc1)C(=O)O [melphalan, L-phenylalanine mustard]
N = 60, M. D. Anderson stage IIIab (AJCC stage IIIC)
  CR rate, isolated limb infusion: 33%
N = 74, M. D. Anderson stage IIIa (AJCC stage IIIB)
  CR rate, isolated limb infusion: 43%
[1]
  CR rate, isolated limb infusion with LPAM: 30%
  PD rate, isolated limb infusion with LPAM: 48%
  PR rate, isolated limb infusion with LPAM: 7%
